Measured values published in patent US11865506B2, “Pyraclostrobin microcapsule based on sodium alginate and preparation method” (ANHUI AGRICULTURAL UNIVERSITY, priority 2022, dated 2024).
≈ marks a conversion by molar mass, not a printed value. Like-named read-outs stand apart in the source and are kept apart here.

Assays:
[1] = organic solvent; cited from earlier work
[2] = Cold and hot storage stability; assay type: physicochemical; details: for Stability / decomposition rate on cold storage: stored at 4° C. and −20° C.
Excerpt: (§1) The cold storage stability, hot storage stability, and photostability are experimented respectively.

[3] = tested on: Fusarium pseudograminearum; experiment: microbe, parasite or virus in culture; assay type: cell-based
Procedure: By mycelium growth rate method, the fungicidal activity of pyraclostrobin original drug and the prepared pyraclostrobin SA microcapsules against Fusarium pseudograminearum is determined, and the release rule of the microcapsules in the culture medium is determined.
Inclined experiment tube storage method: inoculate the strain of Fusarium pseudograminearum on a PDA plate for activation treatment, place the plate in a constant temperature incubator at 25° C. after sealing, and incubate for 3 days. Pick out the edge bacteria, transfer to a PDA slant experiment tube, and cultivate at a constant temperature at 25° C. until the colonies cover the surface of the slant, then put the experiment tube into a 4° C. refrigerator for storage until use. […]
Activate the Fusarium pseudograminearum on a drug-free PDA plate in advance, after culturing at 25° C. for 3 days, beat the fungus cake along the edge of the colony, pick the fungus cake with an inoculation needle every 0, 4, 8, 12, and 16 days and transfer it reversely to the center of the drug-containing medium; seal and store the culture dish, and place in a constant temperature incubator at 25° C. for cultivation. After each cultivation for 3 days, the diameter of the colony is measured by the cross method, and the average value is used to calculate the antibacterial rate as follows. […]

[4] = 25° C., cited from earlier work
[5] = Photostability under ultraviolet light; assay type: physicochemical
Excerpt: as §1
Determination of the active ingredient residual concentration of the original drug and microcapsules under the same ultraviolet light conditions, the results are shown in Table 15.

SMILES	Toxicity [1]	Decomposition rate ([2]; storage at 25° C. for 30 days) [%]	Decomposition rate ([2]; storage at 54° C. for 30 days) [%]	Stability / decomposition rate on cold storage [2]	Stability / decomposition rate on cold storage ([2]; listed as pyraclostrobin original drug)	EC50 [3] [µg/mL]	Solubility to original drug ([4]; in acetone) [g/100 mL]	Solubility to original drug ([4]; in ethanol) [g/100 mL]	Solubility to original drug ([4]; in ethyl acetate) [g/100 mL]	Solubility to original drug ([4]; in methanol) [g/100 mL]	Photolysis rate constant ([5]; Ct = C0 × e^−kt)	Residual concentration of the active ingredient ([5]; final time of 60 minutes) [µg/mL]	Photolysis half life ([5]; first-level kinetic equation) [min]	half-life at 9.986 μg/mL ([5]; first-level kinetic equation, read-out: Photolysis half life) [min]
CC(C)=O [Acetone]	Low													
COC(=O)N(OC)c1ccccc1COc1ccn(-c2ccc(Cl)cc2)n1 [Original drug, pyraclostrobin]		2.2	40.25	better stability	extremely low	0.097 (≈ 0.25 µM)	≥65	≥10	≥65	≥10	0.03	1.384	21.01	21
CCOC(C)=O [Ethyl acetate]	Low													
